Data: ChEMBL document CHEMBL5543095 (Eur J Med Chem, 2024)
Calls of active or inactive are those of the source. No cut-off for these calls is given here.

Columns and labels:
U-87MG ATCC [1] = experiment: Upregulation of CORO1A gene expression in human U87 cells by transcriptome analysis; type: functional, cell-based
U-87MG ATCC [2] = experiment: Upregulation of CGNL1 gene expression in human U87 cells by transcriptome analysis; type: functional, cell-based
GL261-Luc [3] = experiment: Antitumor activity against mouse GL261-Luc cells implanted in iv dosed C57BL/6 mouse assessed as inhibition of tumor growth administered every other day on day 0,2,4,6,8,10 and measured on day 12 by bioluminescence imaging analysis; type: functional, organism-based; settings: dose 5-10 mg/kg, time 12.0 day
GL261-Luc [4] = experiment: Antitumor activity against mouse GL261-Luc cells implanted in C57BL/6 mouse assessed as reduction in tumor cell growth at 10 mg/kg, iv administered every other day on day 0,2,4,6,8,10 and measured after 12 days by H and E staining based analysis; type: functional, organism-based; settings: time 12.0 day
U-87 MG [5] = experiment: Induction of cell cycle arrest in human U87 cells assessed as accumulation of cells at G1 phase at 2 uM measured after 48 hrs by PI staining based flow cytometry analysis (reference value: 72.6%); type: functional, U-87MG ATCC
U-87 MG [6] = experiment: Induction of cell cycle arrest in human U87 cells assessed as accumulation of cells at G1 phase at 1 uM measured after 48 hrs by PI staining based flow cytometry analysis (reference value: 72.6%); type: functional, U-87MG ATCC
[7] = Toxicity in C57BL/6 mouse implanted with mouse GL261-Luc cells assessed as histopathological changes in liver at 5 to 10 mg/kg, iv administered every other day on day 0,2,4,6,8,10 and measured after 12 days by H and E staining based analysis; type: organism-based; settings: in vivo, 288 h, dose 5-10 mg/kg, time 12 day
U-87 MG [8] = experiment: Induction of apoptosis in human U87 cells assessed as dead cells at 2.5 uM incubated for 48 hrs by Annexin V-FITC/PI staining based flow cytometry analysis (reference value: 0.013%); type: functional, U-87MG ATCC
U-87 MG [9] = experiment: Induction of apoptosis in human U87 cells assessed as early apoptotic cells at 0.625 uM incubated for 48 hrs by Annexin V-FITC/PI staining based flow cytometry analysis (reference value: 6.25%); type: functional, U-87MG ATCC
U-87 MG [10] = experiment: Induction of apoptosis in human U87 cells assessed as live cells at 0.625 uM incubated for 48 hrs by Annexin V-FITC/PI staining based flow cytometry analysis (reference value: 91.7%); type: functional, U-87MG ATCC
Tubulin (Homo sapiens) = Tubulin (Homo sapiens) (UniProt P68371+Q9H4B7+P0DPH7+P68366+Q13509+Q71U36+P04350+Q3ZCM7+P07437+P68363+Q9BQE3+Q6PEY2+Q13885+Q9BVA1+Q9BUF5); experiment: Inhibition of tubulin (unknown origin) polymerization assessed as reduction in steady state content of tubulins at 6 to 12 uM by fluorescence based analysis; type: protein-complex assay; settings: dose 6-12 µM
U-87MG ATCC [11] = experiment: Downregulation of TUBA1B gene expression in human U87 cells by transcriptome analysis; type: functional, cell-based
U-87 MG [12] = experiment: Induction of apoptosis in human U87 cells assessed as early apoptotic cells at 0.3125 uM incubated for 48 hrs by Annexin V-FITC/PI staining based flow cytometry analysis (reference value: 6.25%); type: functional, U-87MG ATCC
U-87 MG [13] = experiment: Induction of cell cycle arrest in human U87 cells assessed as accumulation of cells at […] at 2 uM measured after 48 hrs by PI staining based flow cytometry analysis (reference value: 8.55%); type: functional, U-87MG ATCC
U-87 MG [14] = experiment: Antiproliferative activity against human U87 cells assessed as inhibition of cell growth inhibition incubated for 48 hrs by CCK-8 assay; type: functional, cell-based, U-87MG ATCC
U-87 MG [15] = experiment: Induction of cell cycle arrest in human U87 cells assessed as accumulation of cells at […] at 4 uM measured after 48 hrs by PI staining based flow cytometry analysis (reference value: 8.55%); type: functional, U-87MG ATCC
U-87 MG [16] = experiment: Induction of apoptosis in human U87 cells assessed as dead cells at 1.25 uM incubated for 48 hrs by Annexin V-FITC/PI staining based flow cytometry analysis (reference value: 0.013%); type: functional, U-87MG ATCC
[17] = Apparent permeability across basolateral to apical side in MDCK-MDR1 cells at 10 uM incubated for 90 mins by LC-MS/MS analysis; type: ADME, cell-based, Canis lupus familiaris; settings: dog
U-87MG ATCC [18] = experiment: Upregulation of NECTIN4 gene expression in human U87 cells by transcriptome analysis; type: functional, cell-based
U-87 MG [19] = experiment: Induction of apoptosis in human U87 cells assessed as late apoptotic cells at 1.25 uM incubated for 48 hrs by Annexin V-FITC/PI staining based flow cytometry analysis (reference value: 2.08%); type: functional, U-87MG ATCC
[20] = Apparent permeability across apical to basolateral side in MDCK-MDR1 cells at 10 uM incubated for 90 mins by LC-MS/MS analysis; type: ADME, cell-based, Canis lupus familiaris; settings: dog

In the case of `Cc1ccc2ccc3c(c2n1)OC(N)=C(C#N)C3c1ccccc1` (stereo unspecified), the Activity (U-87MG ATCC [1]) is reported as “Active”, the Activity (U-87MG ATCC [2]) is reported as “Active” and the Activity (GL261-Luc [3]) is reported as “Dose-Dependent Effect”. The Activity (GL261-Luc [4]) was “Active”, the Activity (U-87 MG [5]) was 14.4% and the Activity (U-87 MG [6]) was 33%. The Activity [7] was “Non-Toxic”, the Activity (U-87 MG [8]) was 0.1% and the Activity (U-87 MG [9]) was 16.1%. The Activity (U-87 MG [10]) was 75.9%, the inhibition (Tubulin (Homo sapiens)) was “Active” and the Activity (U-87MG ATCC [11]) was “Active”. It also gave an Activity (U-87 MG [12]) of 7.01%, an Activity (U-87 MG [13]) of 56.2% and an IC50 (U-87 MG [14]) of 900 nM. The Activity (U-87 MG [15]) was 59.3%, the Activity (U-87 MG [16]) was 0.027% and the Papp B→A at 1.5 h, 10 µM [17] was 25.8 ×10⁻⁶ cm/s. For the same compound, the Activity (U-87MG ATCC [18]) was “Active”, the Activity (U-87 MG [19]) was 7.82% and the Papp A→B at 1.5 h, 10 µM [20] was 33.7 ×10⁻⁶ cm/s.
